Data published in patent publication US11590133B2, “Methods and compositions for treatment of BRAF mutant cancers” (MEMORIAL SLOAN KETTERING CANCER CENTER, priority 2016, dated 2023).

Columns and labels:
[1] = system: BRAFV600E-mutant lung cancer patient-derived xenografts (PDX); test: ERK inhibitor monotherapy of lung cancer PDX, tumor growth; format: in vivo, mice; conditions: SCH984 75 mpk; FIG. 1B
Source text: These were established as described^38,39, in accordance with the Memorial Sloan Kettering Cancer Center Institutional Review Board. Informed consent was obtained in all cases. All animal studies were done in accordance with protocols approved by the MSKCC Animal Care and Use Committee. Melanoma models were generated previously40. Patient derived tissue (biopsy or surgical resection) or pleural fluid was used to establish the lung cancer models in Table I. For biopsy or resection specimens, the tumor sample was minced under aseptic conditions, vigorously washed in 1×PBS, passed through a 60-μm filter, centrifuged, and then re-suspended in 500 μL of Matrigel (BD Biosciences) at 4° C. For pleural effusions, the fluid was centrifuged in order to isolate the cellular fraction and washed several times in cold PBS. Cells were then injected subcutaneously in the flanks of NSG mice and monitored for tumor growth. […]
Nu/nu athymic or NSG mice were obtained from the Harlan Laboratories and maintained in compliance with IACUC guidelines. […] Doubling times were calculated by fitting tumor volumes into exponential growth curves and determining their rate constants in Prism. […] Statistically significant differences in rate constants were determined by using the extra-sum-of-squares F test (with p<0.05) embedded in Prism. […]

ERK = conditions: cited from earlier work

## CS[C@@]1(C(=O)Nc2ccc3[nH]nc(-c4ccc(OC(C)C)nc4)c3c2)CCN(CC(=O)N2CC=C(c3ccc(-c4ncn(C)n4)cc3)CC2)C1 [SCH984]
[1]
  PDX tested in which growth was inhibited: 3/4
  duration of response: several weeks
ERK; ATP-competitive inhibitor
  effect on ERK kinase activity and ERK phosphorylation by MEK: inhibits the kinase activity of ERK and prevents its phosphorylation by MEK
ERK
  preference for phosphorylation state of ERK: preferentially targets unphosphorylated ERK
